# Experimental data: patent US12540161B2, “Linkers” (BicycleTx Limited, priority 2020, dated 2026)
# Columns and labels:
# Cathepsin B = Cathepsin B (Homo sapiens, UniProt P07858); experiment: Cathepsin B (CatB) cleavage assay; format: biochemical; conditions: for % Parent remaining after incubation with CatB, T = 1 h / % Parent remaining after incubation with CatB, T = 4 h / % Parent remaining after incubation with CatB, T = 24 h: norfloxacin linker compounds; for % Parent remaining after incubation with CatB, 0 h / % Parent remaining after incubation with CatB, 1 h / % Parent remaining after incubation with CatB, 2 h / % Parent remaining after incubation with CatB, 4 h / % Parent remaining after incubation with CatB, 6 h / % Parent remaining after incubation with CatB, 24 h / half-life at 40 μM: BTCs; for half-life at 40 μM: read-out: CatB t1/2 (converted)
# Procedure: 15 μL of test compound solution (2 mM in DMSO) was added to the incubation plate in duplicate. 30 μL of Cathepsin B stock solution (16 μM) was pre-activated with 1500 μL activation buffer for 10 min at room temperature. The Cathepsin B solution was diluted in 13.17 mL water, then 735 μL activatived enzyme mixture was added to the incubation plate. The mixture was incubated at 37° C. in a waterbath. […] The samples were mixed and centrifuged at 4000 rpm for 20 min. 50 μL of supernatant was taken into a new plate containing 150 μL ultra-pure water and the samples mixed thoroughly before submitting to LC-MS/MS analysis.
# in vitro = conditions: for fold increase in half-life vs Cit-Val: 2 μM; for half-life at 2 μM: plasma
# Procedure: Pooled frozen plasma was thawed in a water bath at 37° C. Plasma was centrifuged at 4000 rpm for 5 min and the clots were removed if any. The pH will be adjusted to 7.4±0.1 if required. 1 mM stock solution was prepared with DMSO. Propantheline (positive control) was prepared by making a 100 μM working solution by diluting 5 μL of the stock solution (10 mM) with 495 μL ultra pure water. 100 μM working solutions of test compounds were made up by diluting 10 μL of the stock solution (1 mM) with 90 μL DMSO. 98 μL of blank plasma was spiked with 2 μL of dosing solution (100 μM) to achieve 2 μM of the final concentration in duplicate and samples were incubated at 37° C. in a water bath. […] An aliquot of supernatant (150 μL) was transferred from each well before submitting for LC-MS/MS analysis.
# The % remaining test compound after incubation in plasma was calculated using following equation: Remaining=100×(PAR at appointed incubation time/PAR at T0 time)
# where PAR is the peak area ratio of analyte versus internal standard (IS).
# The half-life (T½) was calculated from a log linear plot of concentration versus time.
# [1] = pH 7.4, Mouse plasma t1/2 (EDTA), BTCs, EDTA anticoagulant
SMILES,"% Parent remaining after incubation with CatB, T = 1 h (Cathepsin B) [%]","% Parent remaining after incubation with CatB, T = 4 h (Cathepsin B) [%]","% Parent remaining after incubation with CatB, T = 24 h (Cathepsin B) [%]","fold increase in half-life vs Cit-Val (in vitro; mouse, pH 7.4) [fold]","half-life at 2 μM (in vitro; mouse, pH 7.4) [h]","% Parent remaining after incubation with CatB, 0 h (Cathepsin B) [%]","% Parent remaining after incubation with CatB, 1 h (Cathepsin B) [%]","% Parent remaining after incubation with CatB, 2 h (Cathepsin B) [%]","% Parent remaining after incubation with CatB, 4 h (Cathepsin B) [%]","% Parent remaining after incubation with CatB, 6 h (Cathepsin B) [%]","% Parent remaining after incubation with CatB, 24 h (Cathepsin B) [%]",half-life at 40 μM (Cathepsin B) [h],"half-life at 2 μM (in vitro; pH 7.4, Mouse plasma t1/2 expt 2 (EDTA), BTCs, EDTA anticoagulant, experiment 2) [h]",half-life at 2 μM (in vitro; [1]) [h]
CCn1cc(C(=O)O)c(=O)c2cc(F)c(N3CCN(C(=O)OCc4ccc(NC(=O)[C@H](CNC(=N)N)NC(=O)[C@@H](NC(=O)CCCC(=O)N(C)C)C(C)C)cc4)CC3)cc21 [BCY10300],72,10,0,3.4,1.4,,,,,,,,,
"CC[C@H](C)[C@@H]([C@@H](CC(=O)N1CCC[C@H]1[C@H](OC)[C@@H](C)C(=O)N[C@H](C)[C@@H](O)c1ccccc1)OC)N(C)C(=O)[C@@H](NC(=O)[C@H](C(C)C)N(C)C(=O)OCc1ccc(NC(=O)[C@H](CCN)NC(=O)[C@@H](NC(=O)Cn2cc(CCC(=O)NCCC(=O)N(C)CC(=O)N(C)CC(=O)N(C)CC(=O)N(C)CC(=O)N(C)CC(=O)N(C)CC(=O)N(C)CC(=O)N(C)CC(=O)N(C)CC(=O)N(C)CC(=O)N[C@@H](C)C(=O)N[C@H]3CN(C)Cc4cc5cc(c4)CN(C)C[C@@H](C(N)=O)NC(=O)[C@H](C(C)(C)C)NC(=O)[C@H](CC(=O)O)NC(=O)[C@H](Cc4ccc(O)cc4)NC(=O)[C@H](Cc4ccccc4)NC(=O)[C@H](CC(=O)O)NC(=O)[C@H](CCC(=O)O)NC(=O)[C@H](CSC5)NC(=O)[C@@H](C)NC(=O)[C@H](Cc4cccc5ccccc45)NC(=O)[C@H](CCC(=O)O)NC(=O)[C@H](CC(N)=O)NC(=O)[C@@H](C)NC3=O)nn2)C(C)C)cc1)C(C)C [BCY10989, MMAE-PAB-(Dab-Val)-BCY3900]",,,,,,100,89.4,60.7,40.4,23.2,12.8,2.8,30.8,
"CC[C@H](C)[C@@H]([C@@H](CC(=O)N1CCC[C@H]1[C@H](OC)[C@@H](C)C(=O)N[C@H](C)[C@@H](O)c1ccccc1)OC)N(C)C(=O)[C@@H](NC(=O)[C@H](C(C)C)N(C)C(=O)OCc1ccc(NC(=O)[C@H](CN)NC(=O)[C@@H](NC(=O)[C@H](CCC(=O)O)NC(=O)Cn2cc(CCC(=O)NCCC(=O)N(C)CC(=O)N(C)CC(=O)N(C)CC(=O)N(C)CC(=O)N(C)CC(=O)N(C)CC(=O)N(C)CC(=O)N(C)CC(=O)N(C)CC(=O)N(C)CC(=O)N[C@@H](C)C(=O)N[C@H]3CN(C)Cc4cc5cc(c4)CN(C)C[C@@H](C(N)=O)NC(=O)[C@H](C(C)(C)C)NC(=O)[C@H](CC(=O)O)NC(=O)[C@H](Cc4ccc(O)cc4)NC(=O)[C@H](Cc4ccccc4)NC(=O)[C@H](CC(=O)O)NC(=O)[C@H](CCC(=O)O)NC(=O)[C@H](CSC5)NC(=O)[C@@H](C)NC(=O)[C@H](Cc4cccc5ccccc45)NC(=O)[C@H](CCC(=O)O)NC(=O)[C@H](CC(N)=O)NC(=O)[C@@H](C)NC3=O)nn2)C(C)C)cc1)C(C)C [BCY10982, MMAE-PAB-(Dap-Val-Glu)-BCY3900]",,,,,,100,85.435,82.3,73.1,72.3,73.91,> 57.8,,55.9
CCn1cc(C(=O)O)c(=O)c2cc(F)c(N3CCN(C(=O)OCc4ccc(NC(=O)[C@H](CCCNC(N)=O)NC(=O)[C@@H](NC(=O)[C@H](CCC(=O)O)NC(=O)CCCC(=O)N(C)C)C(C)C)cc4)CC3)cc21 [BCY9696],0,0,0,25.1,10.8,,,,,,,,,
"CC[C@H](C)[C@@H]([C@@H](CC(=O)N1CCC[C@H]1[C@H](OC)[C@@H](C)C(=O)N[C@H](C)[C@@H](O)c1ccccc1)OC)N(C)C(=O)[C@@H](NC(=O)[C@H](C(C)C)N(C)C(=O)OCc1ccc(NC(=O)[C@H](CCN)NC(=O)[C@@H](NC(=O)[C@H](CCC(=O)O)NC(=O)Cn2cc(CCC(=O)NCCC(=O)N(C)CC(=O)N(C)CC(=O)N(C)CC(=O)N(C)CC(=O)N(C)CC(=O)N(C)CC(=O)N(C)CC(=O)N(C)CC(=O)N(C)CC(=O)N(C)CC(=O)N[C@@H](C)C(=O)N[C@H]3CN(C)Cc4cc5cc(c4)CN(C)C[C@@H](C(N)=O)NC(=O)[C@H](C(C)(C)C)NC(=O)[C@H](CC(=O)O)NC(=O)[C@H](Cc4ccc(O)cc4)NC(=O)[C@H](Cc4ccccc4)NC(=O)[C@H](CC(=O)O)NC(=O)[C@H](CCC(=O)O)NC(=O)[C@H](CSC5)NC(=O)[C@@H](C)NC(=O)[C@H](Cc4cccc5ccccc45)NC(=O)[C@H](CCC(=O)O)NC(=O)[C@H](CC(N)=O)NC(=O)[C@@H](C)NC3=O)nn2)C(c2ccccc2)c2ccccc2)cc1)C(C)C [BCY10987, MMAE-PAB-(Dab-Dpa-Glu)-BCY3900]",,,,,,100,104.27,90.6,90.2,94,91.48,> 57.8,,> 57.8
CCn1cc(C(=O)O)c(=O)c2cc(F)c(N3CCN(C(=O)OCc4ccc(NC(=O)[C@H](CCN)NC(=O)[C@@H](NC(=O)[C@H](CCC(=O)O)NC(=O)CCCC(=O)N(C)C)C(C)C)cc4)CC3)cc21 [BCY10122],0,0,0,107.5,39,,,,,,,,,
CCn1cc(C(=O)O)c(=O)c2cc(F)c(N3CCN(C(=O)OCc4ccc(NC(=O)[C@H](CN)NC(=O)[C@@H](NC(=O)CCCC(=O)N(C)C)C(C)C)cc4)CC3)cc21 [BCY10298],92,63,6,6.5,2.6,,,,,,,,,
"CCn1cc(C(=O)O)c(=O)c2cc(F)c(N3CCN(C(=O)OCc4ccc(NC(=O)[C@H](CCCNC(N)=O)NC(=O)[C@@H](NC(=O)CCCC(=O)N(C)C)C(C)C)cc4)CC3)cc21 [BCY9422, reference compound]",3,0,0,1.0,0.4,,,,,,,,,
CCn1cc(C(=O)O)c(=O)c2cc(F)c(N3CCN(C(=O)OCc4ccc(NC(=O)[C@H](CN)NC(=O)[C@@H](NC(=O)[C@H](CCC(=O)O)NC(=O)CCCC(=O)N(C)C)C(C)C)cc4)CC3)cc21 [BCY10297],75,15,0,19.3,15.5,,,,,,,,,
CCn1cc(C(=O)O)c(=O)c2cc(F)c(N3CCN(C(=O)OCc4ccc(NC(=O)[C@H](CCNC(=N)N)NC(=O)[C@@H](NC(=O)[C@H](CCC(=O)O)NC(=O)CCCC(=O)N(C)C)C(C)C)cc4)CC3)cc21 [BCY9695],0,0,0,34.1,14.3,,,,,,,,,
CCn1cc(C(=O)O)c(=O)c2cc(F)c(N3CCN(C(=O)OCc4ccc(NC(=O)[C@H](CCNC(=N)N)NC(=O)[C@@H](NC(=O)CCCC(=O)N(C)C)C(C)C)cc4)CC3)cc21 [BCY9423],0.6,0,0,6.0,2.4,,,,,,,,,
